From patent US5688830A, “Treatment of neuropathic pain” (Syntex (U.S.A.) Inc., priority 1997, dated 1997)
Read-outs that look alike come from different tables or passages of the source.

How the values were obtained:
[1] = system: voltage-gated sodium channels ([3H]BTX binding, rat cortex); assay: [3H]BTX binding assay, rat cortex membranes
Procedure: (§1) The following assays characterize the interaction of the compounds of Formula I with ligand binding sites on voltage-gated sodium channels.
(§2) Frozen tissues were obtained from Pel-Freez Biologicals (Rogers, AR). Tissues were homogenized in 10 volumes of a Tris-sucrose buffer (10 mM Tris-HCl, 250 mM sucrose, pH 7.4 at 4° C.) using 10 strokes with a glass-glass, hand-held homogenizer. The homogenates were filtered through nylon mesh and then centrifuged at 1,000×g for 15 minutes. The pellets were resuspended in a Hepes buffer (50 mM Hepes, 130 mM choline chloride, 5 mM glucose, 5.4 mM KCl, pH 7.4 at 4° C.). The resuspended pellets were centrifuged at 1,000×g for 15 minutes, resuspended in a Hepes buffer (50 mM Hepes, 130 mM choline chloride, 5 mM glucose, 5.4 mM KCl, pH 7.4 at 25° C.) and, frozen at -70° C. until used in binding assays.
Nonspecific binding was defined in the presence of 1 mM veratridine. Unless otherwise specified, PbTx (0.1 μM) and LqTx (50 μg/ml) were included in the assays. Membranes were incubated for 60 minutes at 25° C. and then filtered using GF/B glass fiber filters that had been pretreated with 0.3% PEI. Filters were rinsed with 3×1 ml of ice cold 50 mM Tris-HCl (pH 7.4 at 4° C.) and the bound radioactivity was determined by scintillation counting (Packard Top-count).

[2] = system: [3H]STX binding site on the rat brain sodium channel; assay: [3H]STX binding assay
Procedure: as §1, §2
Membranes as prepared in Example 10A above were incubated at 37° C. for 30 minutes in 250 μl of a Hepes buffer (50 mM Hepes, 130 mM choline chloride, 5.5 mM glucose, 0.8 mM MgSO4, 5.4 mM KCl, pH 7.4 at 37° C.) containing 1 nM [^3 H]STX. Nonspecific binding was defined with 1 μM tetrodotoxin (TTX). […] The filters were rinsed with 3×1 ml ice cold H2 O and the bound radioactivity determined in a Packard 1900 liquid scintillation counter using Aquasol scintillation fluid.

[3] = system: local anesthetic site of the sodium channel in rat brain cortex membranes; assay: [3H]PD85639 binding assay
Procedure: as §1, §2
Membranes as prepared in Example 10A above were incubated with 3 nM [^3 H]PD 85639 in 250 μl of Hepes buffer (50 mM Hepes, 130 mM choline chloride, 5 mM glucose, 5.4 mM KCl, pH 7.4 at 25° C. with Tris base). Nonspecific binding was defined in the presence of 0.1 mM PD85639. […] Filters were rinsed with 3×1 ml of ice cold 50 mM Tris-HCl (pH 7.4 at 4° C.) and the bound radioactivity was determined by scintillation counting (Packard Top-count).

[4] = system: rat brain type IIA sodium channel; assay: [14C]Guanidinium ion influx assay, rat brain type IIA sodium channel in CHO cells; type: cell-based
Procedure: (§3) Chinese hamster ovary cells stably expressing the rat brain type IIA sodium channel subunit were maintained in RPMI 1640 with 10% fetal bovine serum and […] G-418. Chinese hamster lung cells stably expressing the human heart (hH1a) sodium channel subunit were maintained in DMEM with 5% fetal bovine serum and 300 μg/ml G-418. Both cells were subcultured and grown to confluence in 24-well plates 2-3 days before each experiment. After the growth medium was removed, the cells were washed with warm buffer (25 mM Hepes-Tris, 135 mM choline chloride, 5.4 mM potassium chloride, 0.98 mM magnesium sulfate, 5.5 mM glucose, and 1 mg/ml BSA, pH 7.4) and incubated in buffer on a 36° C. slide warmer for approximately 10 minutes. Various concentrations of the test compounds or standard sodium channel blockers (10 μl) and then veratridine (100 μM) were added to each well. After the cells were exposed to veratridine for 5 minutes, 5 μM of [^14 C]guanidinium was added, incubated with the radioligand, washed with 4 ml of ice-cold buffer, and dissolved in 0.1N sodium hydroxide. The radioactivity and the protein concentration of each cell lysate were determined by liquid scintillation counting and the protein assay using Pierce BCA reagent.

[5] = system: human heart (hH1a) sodium channel; assay: [14C]Guanidinium ion influx assay, human heart (hH1a) sodium channel in Chinese hamster lung cells; type: cell-based
Procedure: as §3

cold allodynia in rats = assay: Cold allodynia in vivo assay (chronic constriction injury), acute studies; parameters: species or system rat; settings: subcutaneous; for ED50: Rattus norvegicus, sc
Procedure: This assay determines the effectiveness of compounds in relieving one of the symptoms of neuropathic pain produced by unilateral mononeuropathy, namely cold allodynia. Unilateral mononeuropathy was produced in rats using the Chronic Constriction Injury model performed essentially as described by Bennet and Xie, Pain, (1988) 33:87-107. Briefly, the rats were anesthetized with an intraperitoneal dose of pentobarbital sodium (65 mg/kg) with additional doses of anesthetic given as needed. The lateral aspect of each rat's hind limb was shaved and scrubbed with Novasan. Using aseptic technique, an incision was made on the lateral aspect of the hind limb at the mid-thigh level. The biceps femoris was bluntly dissected to expose the sciatic nerve. On the right hind limb of each rat, four loosely tied ligatures were made around the sciatic nerve approximately 1-2 millimeters apart. On the left side of each rat, an identical dissection was performed except that the sciatic nerve was not ligated. The muscle was closed with a continuous suture pattern, and the skin was closed with wound clips. Each rat was placed individually into a plexiglass chamber with a metal plate 6 cm from the bottom. This chamber was filled with ice water to a depth of 2.5 cm above the metal plate, with the temperature of the bath maintained at 0° C. throughout the experiment. A timer was started, and the rat's response latency was measured to the nearest tenth of a second. A "response" was defined as a rapid withdrawal of the right ligated hindpaw completely out of the water while the animal was stationary and not pivoting. An exaggerated limp while the animal was walking was not scored as a response. Maximum immersion time was 20 seconds with a 20 minute interval between trials. The screening criteria were 1) the average of two trials was less than or equal to 13 seconds, and 2) there was consistency across the two trial scores. Animals were screened for hypersensitivity to cold on post-surgery days 4 through 10, and selected for inclusion in dose-response studies based on the criteria described above. The pre-dose screening values were used as the animal's baseline cold allodynia scores. For acute studies, the animals received either subcutaneous or oral injections and were tested for cold allodynia at 1, 3, and sometimes 5 hours post-dose. The selection of doses was similar to that of Example 12C.

neuropathic pain models = assay: Neuropathic pain models / standard assays (summary statements); type: in vivo; settings: vs methylamine and propylamine analogues and isomers thereof
[6] = cold allodynia, acute, 1 hr, read-out: ED50 1 hr
[7] = cold allodynia, acute, in words

Row | SMILES | potency in rat cortex greater than in rat heart or rat dorsal root ganglion ([1]; [3H]BTX binding, rat cortex vs rat heart or dorsal root ganglion) | inhibition of [3H]BTX binding ([1]; rat cortex membranes) | affinity for the [3H]STX binding site [2] | inhibition of [3H]PD85639 binding to the local anesthetic site [3] | inhibition of veratridine-stimulated [14C]Guanidinium ion influx [4] | inhibition of veratridine-stimulated [14C]Guanidinium ion influx [5] | ED50 (cold allodynia in rats; [6]) [mg/kg] | Emax 1 hr (cold allodynia in rats; cold allodynia, acute, 1 hr) [%] | anti-allodynic effect, acute dosing (cold allodynia in rats; 5 mg/kg, 1, 3 or 5 hours post-dose) | activity in standard assays compared with close analogues (neuropathic pain models) | potency of (R)- versus (S)-enantiomer in inhibiting [3H]BTX binding ([1]; rat brain cortex membranes) | ED50 (cold allodynia in rats; cold allodynia, acute, 3 hr, read-out: ED50 3 hr) [mg/kg] | Emax 3 hr (cold allodynia in rats; cold allodynia, acute, 3 hr) [%] | duration of action in vivo compared with racemate, (S)-enantiomer, or II (cold allodynia in rats; [7]) | maximal analgesic activity (Emax) compared with III or IV (cold allodynia in rats; [7]) | maximal analgesic activity compared with racemate, (S)-enantiomer, or II (cold allodynia in rats; [7]) | potency (ED50) comparison of (R)-isomers (cold allodynia in rats; [7])
1 | CCNC(C)COc1c(C)cccc1C (racemic) [Formula I racemate, [2-(2,6-dimethylphenoxy)-1-methylethyl]-ethylamine] | approximately 10 fold | inhibited | no detectable affinity | inhibited | inhibited | inhibited | 15.7 | 82 | no significant anti-allodynic effects | unexpectedly more active | – | – | – | – | – | – | –
2 | CCN[C@H](C)COc1c(C)cccc1C [Formula I (R)-, (R)-[2-(2,6-dimethylphenoxy)-1-methylethyl]-ethylamine] | – | – | – | – | – | – | 37 | 91 | – | – | no difference in the potencies | 23.4 | 87 | longer duration of action | significantly greater maximal analgesic activity | greater maximal analgesic activity | comparable potency
